# Source: US20030087956A1, “Urea compounds as inhibitors for vla-4” (priority 2000, published 2003)
# Target: T1, integrin α4β1 (Homo sapiens, UniProt P05556+P13612)
# T1 construct: expressed on the MOLT-4 cell membrane; host or cells: MOLT-4 human T-lymphoblastic leukaemia cells
# Experiment: MOLT-4 cell/Fibronectin adhesion assay
# Assay type: cell-based
# Conditions: MOLT-4 cells on fibronectin-coated plates, 2 h at 37° C., acid phosphatase readout; read-out: inhibitor of MOLT-4 cell adhesion to fibronectin (concentration at which compound is an inhibitor)
# Source text: MOLT-4 cells—human T-lymphoblastic leukaemia cells (European Collection of Animal Cell Cultures, Porton Down)
# Fibronectin—purified from human plasma by gelatin-sepharose affinity chromatography according to the methods described in E. Nengvall, E. Ruoslahti, Int. J. Cancer, 1977, 20, pages 1-5 and J. Forsyth et al, Methods in Enzymology, 1992, 215, pages 311-316).
# 1.1.1 MOLT-4 cell/Fibronectin adhesion assay.
# The MOLT-4 cell/fibronectin adhesion assay was used to investigate the interaction of the integrin α4-β1expressed on the MOLT-4 cell membrane with fibronectin. Polystyrene 96 well plates were coated overnight at 4° C. with fibronectin, 100 μl of 10 μg/ml in PBS. Non-specific adhesion sites were blocked by adding 100 μl BSA, 20 mg/ml. After incubating for 1 h at room temperature, the solutions were aspirated. […] Adherent cells were quantified by a colorimetric acid phosphatase assay. […] After incubation for 1 h at 37° C., 50 μl sodium hydroxide (1M) was added to each well and the absorbance 405 nm was measured on a microplate spectrophotometer. Compounds which inhibited adhesion gave a lower absorbance reading. […] Percentage inhibition was calculated with respect to total (no inhibitor) and non-specific (no fibronectin) standards on each plate.
# T1 sequence (P13612 34-1032): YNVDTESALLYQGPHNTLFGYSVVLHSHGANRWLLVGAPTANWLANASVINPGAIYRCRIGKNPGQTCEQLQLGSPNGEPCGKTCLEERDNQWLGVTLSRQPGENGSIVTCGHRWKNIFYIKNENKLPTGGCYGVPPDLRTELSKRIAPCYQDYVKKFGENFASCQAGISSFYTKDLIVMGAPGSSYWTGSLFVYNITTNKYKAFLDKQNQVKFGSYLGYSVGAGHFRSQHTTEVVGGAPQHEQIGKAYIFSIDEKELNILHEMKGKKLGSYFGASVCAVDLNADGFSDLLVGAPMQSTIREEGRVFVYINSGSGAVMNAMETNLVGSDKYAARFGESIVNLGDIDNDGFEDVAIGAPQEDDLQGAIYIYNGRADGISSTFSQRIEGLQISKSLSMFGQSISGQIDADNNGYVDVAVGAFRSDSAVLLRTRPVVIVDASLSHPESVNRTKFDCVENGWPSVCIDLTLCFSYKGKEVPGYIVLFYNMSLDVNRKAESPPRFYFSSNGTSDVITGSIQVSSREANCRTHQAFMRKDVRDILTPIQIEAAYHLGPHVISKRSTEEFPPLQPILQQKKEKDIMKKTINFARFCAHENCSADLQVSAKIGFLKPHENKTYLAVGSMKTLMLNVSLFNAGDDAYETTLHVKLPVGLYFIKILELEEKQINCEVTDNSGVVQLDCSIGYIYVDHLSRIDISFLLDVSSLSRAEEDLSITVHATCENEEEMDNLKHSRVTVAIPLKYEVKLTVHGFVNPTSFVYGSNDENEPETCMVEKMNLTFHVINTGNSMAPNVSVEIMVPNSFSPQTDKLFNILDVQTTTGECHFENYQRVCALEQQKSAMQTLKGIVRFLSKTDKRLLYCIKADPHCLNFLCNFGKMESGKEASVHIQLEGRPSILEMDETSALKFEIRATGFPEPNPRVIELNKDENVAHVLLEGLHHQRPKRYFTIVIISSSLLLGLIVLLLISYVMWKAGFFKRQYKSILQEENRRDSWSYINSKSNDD
# T1 sequence (P05556 21-798): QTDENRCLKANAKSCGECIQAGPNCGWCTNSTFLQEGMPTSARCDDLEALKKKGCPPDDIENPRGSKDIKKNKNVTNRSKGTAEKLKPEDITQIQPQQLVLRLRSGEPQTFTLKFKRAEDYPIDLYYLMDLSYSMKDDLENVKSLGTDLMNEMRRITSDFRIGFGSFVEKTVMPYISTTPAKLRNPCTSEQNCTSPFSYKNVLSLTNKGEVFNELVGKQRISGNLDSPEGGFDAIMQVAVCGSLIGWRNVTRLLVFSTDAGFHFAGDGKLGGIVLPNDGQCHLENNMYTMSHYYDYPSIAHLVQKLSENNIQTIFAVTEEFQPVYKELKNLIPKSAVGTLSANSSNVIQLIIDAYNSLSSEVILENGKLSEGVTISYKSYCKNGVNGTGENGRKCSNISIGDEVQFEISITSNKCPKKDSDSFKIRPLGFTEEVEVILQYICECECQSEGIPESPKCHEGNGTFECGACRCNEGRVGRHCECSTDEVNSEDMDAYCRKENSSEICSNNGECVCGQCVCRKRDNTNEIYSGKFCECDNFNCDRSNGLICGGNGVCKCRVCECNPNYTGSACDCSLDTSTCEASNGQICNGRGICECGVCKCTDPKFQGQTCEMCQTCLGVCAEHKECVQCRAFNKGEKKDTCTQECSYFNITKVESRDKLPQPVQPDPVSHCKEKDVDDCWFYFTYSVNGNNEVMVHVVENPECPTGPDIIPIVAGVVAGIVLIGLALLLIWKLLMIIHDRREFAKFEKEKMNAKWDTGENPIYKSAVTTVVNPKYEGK
smiles,measurement,value
Cc1ccccc1NC(=O)Nc1ccc(CC(=O)Nc2ccc(OCCN3CCCCC3)c(OCCCC(=O)O)c2)cc1 [Compound 1],IC50,87 nM
Cc1ccccc1NC(=O)Nc1ccc(CC(=O)Nc2ccc(OCCCN3CCCC3)c(OCCCC(=O)O)c2)cc1 [Compound 2],IC50,84 nM
